# According to ChEMBL document CHEMBL1201862, “PubChem BioAssay data set” (2004):
#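 Compound exposure: 48 hours, 5 concentrations, 96-well plates. Here, GI50 denotes the concentration required for 50% inhibition of growth.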 Calls of active or inactive are those of the source. Cut-off read from the data, not from the text of the source: active = GI50 up to about 1.1 µM and inactive = higher.
# How the values were obtained:
# Assay in all cases: NCI anticancer screen, dose series, 48 h
# SW-620 = system: SW-620
# CAKI-1 = system: CAKI-1
# NCI/ADR-RES = system: NCI/ADR-RES
# SR = system: SR
# T47D = system: T47D
# UACC-257 = system: UACC-257
# MDA-MB-231 = system: MDA-MB-231
# EKVX = system: EKVX
# MCF7 = system: MCF7
# LOX IMVI = system: LOX IMVI
# NCI-H522 = system: NCI-H522
# HCT-116 = system: HCT-116
# SF-295 = system: SF-295
# M14 = system: M14
# HT-29 = system: HT-29
# OVCAR-5 = system: OVCAR-5
# OVCAR-3 = system: OVCAR-3
# HOP-92 = system: HOP-92
# TK-10 = system: TK-10
# MOLT-4 = system: MOLT-4
# U-251 = system: U-251
# DU-145 = system: DU-145
# SF-539 = system: SF-539
# IGROV-1 = system: IGROV-1
# 786-0 = system: 786-0
# OVCAR-4 = system: OVCAR-4
# OVCAR-8 = system: OVCAR-8
# NCI-H460 = system: NCI-H460
# NCI-H23 = system: NCI-H23
# UO-31 = system: UO-31
# ACHN = system: ACHN
# HCT-15 = system: HCT-15
# HOP-62 = system: HOP-62
# Malme-3M = system: Malme-3M
# SK-MEL-28 = system: SK-MEL-28
# SNB-19 = system: SNB-19
# MDA-N = system: MDA-N
# NCI-H226 = system: NCI-H226
# RPMI-8226 = system: RPMI-8226
# UACC-62 = system: UACC-62
# K562 = system: K562
# HL-60 = system: HL-60
# RXF 393 = system: RXF 393
# A549 = system: A549
# CCRF-CEM = system: CCRF-CEM
# A498 = system: A498
# SF-268 = system: SF-268
# Hs-578T = system: Hs-578T
# KM12 = system: KM12
# HCC 2998 = system: HCC 2998
# MDA-MB-435 = system: MDA-MB-435
# SN12C = system: SN12C
# SNB-75 = system: SNB-75
# SK-MEL-2 = system: SK-MEL-2
# SK-MEL-5 = system: SK-MEL-5
# PC-3 = system: PC-3
# COLO 205 = system: COLO 205
# SK-OV-3 = system: SK-OV-3
structure (smiles),measurement,setting,value
COC(=O)c1c(C)cccc1C1CN=NC12Cc1ccc(C)c(C)c1C2=O (stereo not drawn),GI50,SW-620,33.4 µM (inactive)
same,GI50,CAKI-1,> 100 µM (inactive)
same,GI50,NCI/ADR-RES,15.2 µM (inactive)
same,GI50,SR,16.6 µM (inactive)
same,GI50,T47D,3.2 µM (inactive)
same,GI50,UACC-257,26.2 µM (inactive)
same,GI50,MDA-MB-231,39.4 µM (inactive)
same,GI50,EKVX,12.2 µM (inactive)
same,GI50,MCF7,24.4 µM (inactive)
same,GI50,LOX IMVI,3.21 µM (inactive)
same,GI50,NCI-H522,12.9 µM (inactive)
same,GI50,HCT-116,14.8 µM (inactive)
same,GI50,SF-295,42.7 µM (inactive)
same,GI50,M14,30.5 µM (inactive)
same,GI50,HT-29,25.7 µM (inactive)
same,GI50,OVCAR-5,> 100 µM (inactive)
same,GI50,OVCAR-3,32.4 µM (inactive)
same,GI50,HOP-92,28.6 µM (inactive)
same,GI50,TK-10,> 100 µM (inactive)
same,GI50,MOLT-4,12.2 µM (inactive)
same,GI50,U-251,35.2 µM (inactive)
same,GI50,DU-145,54.6 µM (inactive)
same,GI50,SF-539,68.9 µM (inactive)
same,GI50,IGROV-1,46.2 µM (inactive)
same,GI50,786-0,51.3 µM (inactive)
same,GI50,OVCAR-4,24.9 µM (inactive)
same,GI50,OVCAR-8,27.1 µM (inactive)
same,GI50,NCI-H460,22.8 µM (inactive)
same,GI50,NCI-H23,46.5 µM (inactive)
same,GI50,UO-31,42.4 µM (inactive)
same,GI50,ACHN,27.2 µM (inactive)
same,GI50,HCT-15,23.2 µM
same,GI50,HOP-62,77.1 µM (inactive)
same,GI50,Malme-3M,28.6 µM (inactive)
same,GI50,SK-MEL-28,> 100 µM (inactive)
same,GI50,SNB-19,50.9 µM (inactive)
same,GI50,MDA-N,45.2 µM (inactive)
same,GI50,NCI-H226,44.6 µM (inactive)
same,GI50,RPMI-8226,9.84 µM (inactive)
same,GI50,UACC-62,15.3 µM (inactive)
same,GI50,K562,18.2 µM (inactive)
same,GI50,HL-60,8.59 µM (inactive)
same,GI50,RXF 393,20.9 µM (inactive)
same,GI50,A549,18.2 µM (inactive)
same,GI50,CCRF-CEM,24.3 µM (inactive)
same,GI50,A498,36.3 µM (inactive)
same,GI50,SF-268,49.4 µM (inactive)
same,GI50,Hs-578T,37.7 µM (inactive)
same,GI50,KM12,34.3 µM (inactive)
same,GI50,HCC 2998,23.5 µM (inactive)
same,GI50,MDA-MB-435,31.4 µM (inactive)
same,GI50,SN12C,50 µM (inactive)
same,GI50,SNB-75,96.4 µM (inactive)
C=C/C(C)=C\CC1[C@](C)(O)CC[C@H]2C(C)(C)C(=O)CC[C@]12C (stereo partly drawn),GI50,SW-620,> 100 µM (inactive)
same,GI50,CAKI-1,> 100 µM (inactive)
same,GI50,NCI/ADR-RES,60 µM (inactive)
same,GI50,SR,24.6 µM (inactive)
same,GI50,SK-MEL-2,> 100 µM (inactive)
same,GI50,UACC-257,64.4 µM (inactive)
same,GI50,MDA-MB-231,> 100 µM (inactive)
same,GI50,EKVX,> 100 µM (inactive)
same,GI50,MCF7,60.4 µM (inactive)
same,GI50,SK-MEL-5,44.4 µM (inactive)
same,GI50,LOX IMVI,93.8 µM (inactive)
same,GI50,NCI-H522,62.7 µM (inactive)
same,GI50,HCT-116,47.5 µM (inactive)
same,GI50,SF-295,81.7 µM (inactive)
same,GI50,M14,39.4 µM (inactive)
same,GI50,HT-29,47.6 µM (inactive)
same,GI50,OVCAR-5,> 100 µM (inactive)
same,GI50,OVCAR-3,41.7 µM (inactive)
same,GI50,PC-3,34.6 µM (inactive)
same,GI50,HOP-92,> 100 µM (inactive)
same,GI50,TK-10,> 100 µM (inactive)
same,GI50,MOLT-4,19.1 µM (inactive)
same,GI50,U-251,> 100 µM (inactive)
same,GI50,DU-145,> 100 µM (inactive)
same,GI50,SF-539,> 100 µM (inactive)
same,GI50,IGROV-1,> 100 µM (inactive)
same,GI50,786-0,> 100 µM (inactive)
same,GI50,OVCAR-4,54.3 µM (inactive)
same,GI50,OVCAR-8,> 100 µM (inactive)
same,GI50,NCI-H460,50.6 µM (inactive)
same,GI50,NCI-H23,40.6 µM (inactive)
same,GI50,UO-31,23.9 µM (inactive)
same,GI50,ACHN,> 100 µM (inactive)
same,GI50,HCT-15,51.9 µM
same,GI50,Malme-3M,> 100 µM (inactive)
same,GI50,COLO 205,92.3 µM (inactive)
same,GI50,SK-MEL-28,> 100 µM (inactive)
same,GI50,SNB-19,> 100 µM (inactive)
same,GI50,MDA-N,96.4 µM (inactive)
same,GI50,NCI-H226,> 100 µM (inactive)
same,GI50,RPMI-8226,29 µM (inactive)
same,GI50,UACC-62,> 100 µM (inactive)
same,GI50,K562,57.7 µM (inactive)
same,GI50,HL-60,12.1 µM (inactive)
same,GI50,RXF 393,32.3 µM (inactive)
same,GI50,A549,62.7 µM (inactive)
same,GI50,CCRF-CEM,46.6 µM (inactive)
same,GI50,A498,> 100 µM (inactive)
same,GI50,SF-268,> 100 µM (inactive)
same,GI50,Hs-578T,> 100 µM (inactive)
same,GI50,KM12,85.5 µM (inactive)
same,GI50,MDA-MB-435,70.5 µM (inactive)
same,GI50,SN12C,> 100 µM (inactive)
same,GI50,SNB-75,> 100 µM (inactive)
C/C(=C\C(=N\NC(=N)N)c1ccccc1)c1ccccc1,GI50,SW-620,0.318 µM (active)
same,GI50,SK-OV-3,4.3 µM (inactive)
same,GI50,CAKI-1,0.149 µM (active)
same,GI50,NCI/ADR-RES,2.78 µM (inactive)
same,GI50,SR,2.18 µM (inactive)
same,GI50,T47D,0.12 µM (active)
same,GI50,MCF7,0.321 µM (active)
same,GI50,SK-MEL-5,0.281 µM (active)
same,GI50,LOX IMVI,1.23 µM (inactive)
same,GI50,NCI-H522,0.452 µM (active)
same,GI50,HCT-116,0.273 µM (active)
same,GI50,SF-295,0.409 µM (active)
same,GI50,M14,1.17 µM (inactive)
same,GI50,HT-29,0.354 µM (active)
same,GI50,OVCAR-5,0.64 µM (active)
same,GI50,OVCAR-3,0.409 µM (active)
same,GI50,PC-3,0.313 µM (active)
same,GI50,HOP-92,0.716 µM (active)
same,GI50,TK-10,1.17 µM (inactive)
same,GI50,MOLT-4,0.261 µM (active)
same,GI50,U-251,0.652 µM (active)
same,GI50,DU-145,0.406 µM (active)
same,GI50,SF-539,0.432 µM (active)
same,GI50,IGROV-1,0.432 µM (active)
same,GI50,786-0,0.843 µM (active)
same,GI50,OVCAR-4,0.321 µM (active)
same,GI50,OVCAR-8,1.24 µM (inactive)
same,GI50,NCI-H460,2.25 µM (inactive)
same,GI50,NCI-H23,0.354 µM (active)
same,GI50,ACHN,0.2 µM (active)
same,GI50,HCT-15,1.99 µM
same,GI50,HOP-62,0.0822 µM (active)
same,GI50,Malme-3M,1.16 µM (inactive)
same,GI50,COLO 205,0.0348 µM (active)
same,GI50,SK-MEL-28,2.58 µM (inactive)
same,GI50,SNB-19,1.6 µM (inactive)
same,GI50,MDA-N,0.973 µM (active)
same,GI50,NCI-H226,1.15 µM (inactive)
same,GI50,RPMI-8226,1.01 µM (active)
same,GI50,UACC-62,1.15 µM (inactive)
same,GI50,K562,1.53 µM (inactive)
same,GI50,RXF 393,1.41 µM (inactive)
same,GI50,A549,0.577 µM (active)
same,GI50,CCRF-CEM,0.208 µM (active)
same,GI50,SF-268,0.459 µM (active)
same,GI50,Hs-578T,1.32 µM (inactive)
same,GI50,KM12,1.17 µM (inactive)
same,GI50,HCC 2998,0.26 µM (active)
same,GI50,MDA-MB-435,1.24 µM (inactive)
same,GI50,SN12C,0.454 µM (active)
same,GI50,SNB-75,4.28 µM (inactive)
